Test results from patent US5703089A, “Dihydrodibenzisoquinolinediones” (Knoll Aktiengesellschaft, priority 1996, dated 1997).
Values joined by “and” are separate entries in the source; they are usually repeats but may differ in a detail not shown here. Equal values may be shown once. Where a name gives a salt, the structure may show the parent alone.

Legend:
[1] = tested on: HT-29 colon carcinoma cells; assay: Inhibition of HT-29 tumor cell proliferation (MTT cytotoxicity, 72 h); type: cell-based; details: HT-29, 72 h
Method: Cytotoxicity may be measured using standard methodology for adherent cell lines such as the microculture tetrazolium assay (MTT). Details of this assay have been published Cancer Research 48:589-601, 1988). Exponentially growing cultures of tumor cells such as the HT-29 colon carcinoma or LX-1 lung tumor are used to make microtiter plate cultures. Cells are seeded at 5000-20,000 cells per well in 96-well plates (in 150 μl of media), and grown overnight at 37° C. Test compounds are added, in dilutions varying from 10^-4 M to 10^-10 M. The cells are then incubated for 48-72 hours. To determine the number of viable cells in each well, the MTT dye is added (50 μl of 3 mg/ml solution of 3-(4,5-dimethylthiazol-2-yl)-2,5-diphenyltetrazolium bromide in saline). This mixture is incubated at 37° C. for 5 hours, and then 50 μl of 25% strength SDS (pH 2) is added to each well. After overnight incubation, the absorbance of each well at 550 nm is read using an ELISA reader. The values for the mean +/- SD of data from quadruplicate wells are calculated, using the formula % T/C (% cells treated/control). [formula]
The concentration of test compound which gives a T/C of 50% growth inhibition is designated as the IC50.
Inhibition of HT-29 tumor cell proliferation^a.
^a Dihydrodibenzoquinolinedione cytotoxicity studies were performed a
follows: HT29 cells were seeded (5000) into each well of 96 well dishes.
After plating overmight a titration of dihydrodibenzoquinolinedione was
added giving a final volume of 200 ul. Following incubation for 72 h 50 u
of MTT (3 mg/ml) in PBS was added to each well and incubated for 5 hours
at 37° C. The reaction was stopped by the addition of 50 ul of 25%
SDS, pH 2. After an overnight incubation at 37° C. the absorbance,
due to metabolized MTT, was read with a plate reader at 550 nm.
Cytotoxicity was calculate as the well absorbance expressed as a
percentage on nondrug treated control. All estimates were made in
^b 10^-2 M stock solution made in 10% acetic acid then diluted in
^c 10^-2 M stock solution made in 10% DMSO then diluted in media.
^d 10^-4 M stock solution made in 10% acetic acid/10% DMSO then
^e 10^-2 M stock suspention made in DMSO then diluted in media to […]

M5076 murine sarcoma = assay: In vivo anti-tumor activity on M5076 murine sarcoma (survival); set-up: species or system C57BL/6 mice; details: for % T/C: treated MST/control MST; for MST: treated on days 1.5 and 9
Method: Compounds according to the invention may be further tested in any of the various preclinical assays for in vivo activity which are indicative of clinical utility. Such assays may be conducted with human tumors implanted in nude mice as xenografts or mouse tumors implanted in conventional mice in the strain of origin (syngeneic), as is well known in this field. Test compounds are evaluated for their antitumor efficacy following administration to the tumor-bearing mice.
More specifically, human tumors which have been grown in athymic nude mice or mouse tumors grown in their synergeneic host are transplanted into new recipient animals, using either tumor fragments which are about 50 mg in size or 1×10^6 cells harvested from ascites fluid. The day of transplantation is designated as day 0 and the host mice are subsequently injected intravenously or intraperitoneally with the test compounds, in group of 5 to 10 mice per dose level. The compounds are administered either as a single dose or on an intermittent or frequent dosing schedule at doses from 0.1 to 100 mg/kg body weight. Tumor size of solid tumors are measured by vernier calipers in two directions and the volume estimated by the formula: […]
Life span studies following i.p. administration of tumor cells are evaluated on the base of median survival time (MST). The MST of drug treated (T) mice are compared to the MST of control (C) mice and expressed as T/C percent. Compounds producing a T/C percent of >100% indicates some reduction in tumor burden. Values of 125 to 150% may be considered to reflect moderate activity, values of 150 to 200% good to excellent activity, and >200% outstanding activity.
In vivo anti-tumor activity of a Dihydrodibenzoquinolinedione analog on M5076 murine sarcoma^a.
^a C57BL/6 mice (6 per group) were inoculated with 10^6 M5076
cells on day 0. Mice were treated on days 1.5 and 9 with the
dimethanesulfonate salt of example 1 at the dose levels shown. Mice died
as a consequence of tumor burden with median survival times (MST) as
shown. In both studies meaningful antitumor activity was produce as
indicated by a treated MST/Control MST percentage (% T/C) being

[2] = 10^-2 M stock solution made in 10% DMSO then diluted in media
[3] = Homo sapiens, 10^-2 M stock solution made in 10% DMSO then diluted in media
[4] = 10^-2 M stock solution made in 10% acetic acid then diluted in media
[5] = Homo sapiens, 10^-2 M stock solution made in 10% acetic acid then diluted in media
[6] = Homo sapiens, 10^-4 M stock solution made in 10% acetic acid/10% DMSO then diluted in media
[7] = 10^-2 M stock suspension made in DMSO then diluted in media to form a solution

O=C1c2cccc3cc4ccccc4c(c23)C(=O)N1CCNCCCNCCN1C(=O)c2cccc3cc4ccccc4c(c23)C1=O [1 2 CH3 --SO3 H salt] was tested, and the IC50 [1, 2] was 20 nM, the IC50 [1, 3] was 10 nM and the “% T/C” value (M5076 murine sarcoma; Experiment 1, 1.8 mg/kg) was 154%. For the same compound, the MST (M5076 murine sarcoma; Experiment 1, 1.8 mg/kg, control MST 19.5) was 30, the “% T/C” value (M5076 murine sarcoma; Experiment 1, 2.6 mg/kg) was 123% and the MST (M5076 murine sarcoma; Experiment 1, 2.6 mg/kg, control MST 19.5) was 24. The “% T/C” value (M5076 murine sarcoma; Experiment 1, 4 mg/kg) was “toxic”, the MST (M5076 murine sarcoma; Experiment 1, 4 mg/kg, control MST 19.5) was “toxic” and the “% T/C” value (M5076 murine sarcoma; Experiment 2, 1.2 mg/kg) was 128%. The MST (M5076 murine sarcoma; Experiment 2, 1.2 mg/kg, control MST 23.5) was 30, the “% T/C” value (M5076 murine sarcoma; Experiment 2, 1.8 mg/kg) was 98% and the MST (M5076 murine sarcoma; Experiment 2, 1.8 mg/kg, control MST 23.5) was 23. The “% T/C” value (M5076 murine sarcoma; Experiment 2, 2.7 mg/kg) was “toxic”, the MST (M5076 murine sarcoma; Experiment 2, 2.7 mg/kg, control MST 23.5) was “toxic” and the “treated MST/Control MST percentage (% T/C)” value (M5076 murine sarcoma; both studies, reproducibly, meaningful antitumor activity) was “greater than 125%”.
For O=C1c2cccc3cc4ccccc4c(c23)C(=O)N1CCNCCCNCCN1C(=O)c2cccc3cc4ccccc4c(c23)C1=O [Example 1, N,N'-Bis[2-(1,2-dihydro-1,3-dioxo-3H-dibenz[de,h]isoquinoline-2-yl)ethyl]-1,3-propanediamine], the IC50 [1, 4] was 5 nM and the IC50 [1, 5] was 4 nM.
Work on O=C1c2cccc3cc4ccccc4c(c23)C(=O)N1CCNCCNCCN1C(=O)c2cccc3cc4ccccc4c(c23)C1=O [Example 2, N,N'-Bis[2-(1,2-dihydro-1,3-dioxo-3H-dibenz[de,h]isoquinolin-2-yl)ethyl]-1,2-ethylenediamine] yielded an IC50 [1, 4] of 8 nM and an IC50 [1, 5] of 10 nM.
For O=C1c2cccc3cc4ccccc4c(c23)C(=O)N1CCCNCCCCNCCCN1C(=O)c2cccc3cc4ccccc4c(c23)C1=O [Example 3, N,N'-Bis[3-(1,2-dihydro-1,3-dioxo-3H-dibenz[de,h]isoquinolin-2-yl)propyl]-1,4-butanediamine], the IC50 [1, 5] was 200 nM.
For O=C1c2cccc3cc4ccccc4c(c23)C(=O)N1CCCCNCCCN1C(=O)c2cccc3cc4ccccc4c(c23)C1=O [Example 4, [3-(1,2-dihydro-1,3-dioxo-3H-dibenz[de,h]isoquinolin-2-yl)propyl][4-(1,2-dihydro-1,3-dioxo-3,4-dibenz[de,h]isoquinolin-2-yl)butyl]amine], the IC50 ([1]; 10^-4 M stock solution made in 10% acetic acid/10% DMSO then diluted in media) was 50 nM and the IC50 [1, 6] was 90 nM.
O=C1c2cccc3cc4ccccc4c(c23)C(=O)N1CCCNCCCN1C(=O)c2cccc3cc4ccccc4c(c23)C1=O [Example 7, Bis[3-(1,2-dihydro-1,3-dioxo-3H-dibenz[de,h]isoquinolin-2-yl)propyl]amine] was tested, and the IC50 [1, 5] was 20 nM.
In the case of O=C1c2cccc3cc4ccccc4c(c23)C(=O)N1CCNCCN1C(=O)c2cccc3cc4ccccc4c(c23)C1=O [Example 9, Bis[2-(1,2-dihydro-1,3-dioxo-3H-dibenz[de,h]isoquinolin-2-yl)ethyl)amine], the IC50 [1, 6] is reported as 20 nM.
For O=C1c2cccc3cc4ccccc4c(c23)C(=O)N1CCCNCCNCCCN1C(=O)c2cccc3cc4ccccc4c(c23)C1=O [Example 10, N,N'-Bis[3-(1,2-dihydro-1,3-dioxo-3H-dibenz[de,h]isoquinolin-2-yl)propyl]-1,2-ethylenediamine], the IC50 [1, 4] was 90 nM and the IC50 [1, 5] was 100 nM.
Compound O=C1c2cccc3cc4ccccc4c(c23)C(=O)N1CCCNCCCNCCCN1C(=O)c2cccc3cc4ccccc4c(c23)C1=O [Example 11, N,N'-Bis[3-(1,2-dihydro-1,3-dioxo-3H-dibenz[de,h]isoquinolin-2-yl)propyl]-1,3-propanediamine] has an IC50 [1, 4] of 80 nM and an IC50 [1, 5] of 100 nM.
For O=C1c2cccc3cc4c([N+](=O)[O-])cccc4c(c23)C(=O)N1CCNCCCNCCN1C(=O)c2cccc3cc4c([N+](=O)[O-])cccc4c(c23)C1=O [Example 12, N,N'-Bis[2-(1,2-dihydro-8-nitro-1,3-dioxo-3H-dibenz[de,h]isoquinolin-2-yl)ethyl]-1,3-propanediamine], the IC50 [1, 7] was 40 nM and the IC50 ([1]; Homo sapiens, 10^-2 M stock suspension made in DMSO then diluted in media to form a solution) was 30 nM.
For O=C1c2cccc3cc4c([N+](=O)[O-])cccc4c(c23)C(=O)N1CCNCCNCCN1C(=O)c2cccc3cc4c([N+](=O)[O-])cccc4c(c23)C1=O [Example 13, N,N'-Bis-[2-(1,2-dihydro-8-nitro-1,3-dioxo-3H-dibenz[de,h]isoquinolin-2-yl)ethyl]1,3-ethylenediamine], the IC50 [1, 7] was 100 nM and 90 nM.
Compound CN(CCN(C)CCN1C(=O)c2cccc3cc4ccccc4c(c23)C1=O)CCN1C(=O)c2cccc3cc4ccccc4c(c23)C1=O [Example 14, N,N'-Bis[2-(1,2-dihydro-1,3-dioxo-3H-dibenz[de,h]isoquinolin-2-yl)ethyl]-N,N'-dimethyl-1,2-ethylenediamine] has an IC50 [1, 2] of 80 nM and an IC50 [1, 3] of 70 nM.
Work on O=C1c2cccc3cc4ccccc4c(c23)C(=O)N1CCNCCCCCNCCN1C(=O)c2cccc3cc4ccccc4c(c23)C1=O [Example 15, N,N'-Bis[2-(1,2-dihydro-1,3-dioxo-3H-dibenz[de,h]isoquinolin-2-yl)ethyl]-1,5-pentanediamine] yielded an IC50 [1, 3] of 8 nM.
